According to publication PMC10933344, “A lncRNA Dleu2-encoded peptide relieves autoimmunity by facilitating Smad3-mediated Treg induction” (EMBO Reports, 2024):

Test system: CD4+ T cells in spleen of EAE mice
Assay: Flow cytometry of spleen T cells of treated EAE mice
Assay type: in vivo, mouse
Conditions: 100 μg i.v.
Protocol: Figure 5 Dleu2-17aa attenuates EAE by promoting Treg cells. (A) Schematic diagram of MOG-induced EAE and treatment strategies with Dleu2-17aa, scrPEP, and Glatiramer. Mice received 100 μg of Dleu2-17aa or scrPEP every 3 days via i.v. injection or 150 μg of Glatiramer every day for seven times via s.c. on days 9 to 15. (B) Clinical scores were examined daily from day 9 using a scoring system ranging from 0 (no sign) to 5 (complete paralysis or dead). The x-axis represents experimental days, and the y-axis represents symptom severity (n = 8–9). (C) Representative Luxol fast blue (LFB) and hematoxylin and eosin staining (H&E) staining sections for treated EAE spinal cord. Scale bars: 100 μm. (D) Histopathology scores of inflammations and demyelination in treated EAE mice spinal cord using a scoring system ranging from 0 (no inflammatory cells or demyelination) to 4 (extensive inflammatory cells infiltration or confluent foci of demyelination) (n = 5–8). (E) Representative dot plots (left panel) and frequency (right panel) of CD44^hiCD62L^lo activated T cells, Foxp3^+ Treg cells, IL-17A^+ Th17 cells, and IFN-γ^+ Th1 cells gated on CD4^+ T cells in the spleen 14 days post immunization of MOG (n = 3). (F) Representative dot plots and frequency of CD4^+, Foxp3^+ Treg cells, and IFN-γ^+ Th1 cells gated on CD4^+ T cells in the CNS 14 days post immunization of MOG (n = 3). Data information: n indicates biological replicate. Error bars are mean ± SEM; *P < 0.05, **P < 0.01, and ***P < 0.001, n.s. indicates no significant difference. Statistical analysis was by two-way ANOVA for (B) and two-tailed Student’s t-test for (D–F). Source data are available online for this figure. TEXT PRINTED IN THE PICTURE: (E) scrPEP: Spleen: CD62L-PE-DF594 / CD44-PE: 78.2; Spleen: Foxp3-PE / CD4-APC: 7.38; Spleen: IFN-γ-Percp-cy5.5 / Il-17A-FITC: 4.67; Spleen: IFN-γ-Percp-cy5.5 / Il-17A-FITC: 0.18; Spleen: IFN-γ-Percp-cy5.5 / Il-17A-FITC: 94.7; Spleen: IFN-γ-Percp-cy5.5 / Il-17A-FITC: 0.44 | (E) Dleu2-17aa: Spleen: CD62L-PE-DF594 / CD44-PE: 37.2; Spleen: Foxp3-PE / CD4-APC: 12.9; Spleen: IFN-γ-Percp-cy5.5 / Il-17A-FITC: 2.83; Spleen: IFN-γ-Percp-cy5.5 / Il-17A-FITC: 0.26; Spleen: IFN-γ-Percp-cy5.5 / Il-17A-FITC: 96.1; Spleen: IFN-γ-Percp-cy5.5 / Il-17A-FITC: 0.79 | (F) scrPEP: CNS: FSC / CD4-APC: 9.03; CNS: Foxp3-PE / CD4-APC: 8.47; CNS: IFN-γ-Percp-cy5.5 / Il-17A-FITC: 22.9; CNS: IFN-γ-Percp-cy5.5 / Il-17A-FITC: 2.00; CNS: IFN-γ-Percp-cy5.5 / Il-17A-FITC: 69.7; CNS: IFN-γ-Percp-cy5.5 / Il-17A-FITC: 5.44 | (F) Dleu2-17aa: CNS: FSC / CD4-APC: 3.33; CNS: Foxp3-PE / CD4-APC: 15.5; CNS: IFN-γ-Percp-cy5.5 / Il-17A-FITC: 13.9; CNS: IFN-γ-Percp-cy5.5 / Il-17A-FITC: 2.65; CNS: IFN-γ-Percp-cy5.5 / Il-17A-FITC: 77.7; CNS: IFN-γ-Percp-cy5.5 / Il-17A-FITC: 5.79 DOUBTS OF THE COPYIST ABOUT THIS PICTURE: Panels E and F: the gate and quadrant numbers in the dot plots are printed with no measure or unit; the tissue heading and the axis labels of each plot are written in front of them. For the quadrant plots the order is upper left, upper right, lower left, lower right. / Panels E and F: the gate numbers are in small print, so 3, 5, 6, 8 and 9 are best readings: E scrPEP 78.2, 7.38, 4.67, 0.18, 94.7; E Dleu2-17aa 37.2, 12.9, 2.83, 0.26, 96.1, 0.79; F scrPEP 9.03, 8.47, 22.9, 69.7, 5.44; F Dleu2-17aa 3.33, 15.5, 13.9, 2.65, 5.79.
For active EAE immunization, myelin oligodendrocyte glycoprotein peptide (MOGp35–55, […], GenScript) was emulsified in complete Freund adjuvant (Sigma-Aldrich). An equivalent of 300 μg MOG peptide was injected per mouse subcutaneously followed by 200 ng of pertussis toxin (Merck-Calbiochem) injection intravenously on day 0 and day 2 of immunization. […]

Q: What does the source list for “ARGPARRMRGGRRRRLR [scrPEP, scrambled control peptide of Dleu2-17aa]”?
A: CD62LloCD44+/ CD4+ Cells(%) (replicate 1): 58.3%; Foxp3+/ CD4+ Cells (%) (replicate 1): 7.65%; IFN-γ+/ CD4+ Cells(%) (replicate 1): 4.58%; CD62LloCD44+/ CD4+ Cells(%) (replicate 2): 60.9%; Foxp3+/ CD4+ Cells (%) (replicate 2): 6.51%; IFN-γ+/ CD4+ Cells(%) (replicate 2): 4.35%; CD62LloCD44+/ CD4+ Cells(%) (replicate 3): 61.3%; Foxp3+/ CD4+ Cells (%) (replicate 3): 6.5%; IFN-γ+/ CD4+ Cells(%) (replicate 3): 4.11%; CD62LloCD44+/ CD4+ Cells(%) (replicate 4): 78.2%; Foxp3+/ CD4+ Cells (%) (replicate 4): 6.85%; IFN-γ+/ CD4+ Cells(%) (replicate 4): 4.28%
